In PubChem BioAssay (NCI):
“And” between values parts separate entries of the source, which are not always exact repeats. Equal values may be shown once.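 Cultured in 96-well plates, cells were exposed to test compound for 48 hours across five concentrations. GI50 = concentration required for 50% inhibition of growth. At the TGI there is no net growth.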

Legend:
Assay in all cases: NCI-60 cell line screen, 48 h
[1] = system: TK-10 renal
[2] = system: OVCAR-8 ovarian
[3] = system: KM12 colon
[4] = system: ACHN renal
[5] = system: SK-MEL-28 melanoma
[6] = system: HT29 colon
[7] = system: MOLT-4 leukemia
[8] = system: 786-0 renal
[9] = system: MDA-MB-435
[10] = system: MALME-3M melanoma

Compound | GI50 [1] [µM] | TGI [1] [µM] | GI50 [2] [µM] | TGI [2] | GI50 [3] [µM] | TGI [3] | GI50 [4] [µM] | TGI [4] [µM] | GI50 [5] [µM] | TGI [5] | GI50 [6] [µM] | TGI [6] | GI50 [7] [µM] | TGI [7] | GI50 [8] [µM] | TGI [8] [µM] | GI50 [9] [µM] | TGI [9] | GI50 [10] [µM] | TGI [10]
COc1cc(C(=O)c2ccc3c(c2)OCO3)cc(OC)c1OC | 4.44 | > 100 | 5.55 | > 100 µM | 0.656 | 80.8 µM | 8.37 | > 100 | 3.69 | > 100 µM | 0.502 | 15.5 µM | 2.72 | > 75.1 µM | 10.5 | > 100 | 0.2 | 0.502 µM | – | –
O=S(=O)(/C=C/c1ccc(Cl)cc1Cl)Cc1ccccc1CS(=O)(=O)/C=C/c1ccc(Cl)cc1Cl | – | > 100 | – | > 100 µM | – | > 100 µM | – | > 100 | – | > 100 µM | – | > 100 µM | – | > 100 µM | – | > 100 | – | – | – | –
C[C@@H]1CN(C(=O)c2ccc(NC(=O)c3cc(O[C@H](C)c4c(Cl)ccc(F)c4Cl)c(N)nn3)cc2)C[C@H](C)N1 | 11.5 | 23.6 | 7.16 | 19.7 µM | 0.0558 | 13.5 µM | – | – | 1.75 | 3.86 µM | 1.19 | 3.46 µM | 0.907 | 10.4 µM | 4.63 | 15.7 | 1.88 | 16.8 µM | 0.808 | 2.94 µM
CCOC(C)C(/C=N/NC(N)=S)=NNC(N)=S (stereo unspecified) | – | > 100 | – | > 100 µM | – | > 100 µM | – | > 100 | – | > 100 µM | – | – | – | > 100 µM | – | > 100 | – | – | – | > 100 µM
O=c1cccccc1NCCOCCNc1cccccc1=O | – | > 100 | – | > 100 µM | – | > 100 µM | – | > 100 | – | > 100 µM | – | > 100 µM | – | > 100 µM | – | > 100 | – | – | – | > 100 µM
O=c1/c(=C/c2cccc([N+](=O)[O-])c2)sc2nc3ccccc3n12 | – | > 100 | – | > 100 µM | – | > 100 µM | – | > 100 | – | > 100 µM | – | > 100 µM | – | – | – | > 100 | – | – | – | > 100 µM
CCC[CH2][Sn]1([CH2]CCC)[O]C(=O)c2cc(I)cc(I)c2[O]1 | 1.25 | 2.52 | 1.41 | 3.01 µM | 1.61 | 2.99 µM | 1.35 | 2.63 | – | – | 2.03 | 4.21 µM | 0.344 | 1.76 µM | 1.47 | 2.8 | – | – | 1 | 2.23 µM
N#C/C(=C\c1ccc(-c2ccc(Cl)cc2)o1)C(=O)Nc1ncc(Cc2ccc(Cl)cc2)s1 | 2 | 3.71 | 1.81 | 5.76 µM | 1.83 | 6.56 µM | 1.59 | 3.43 | – | – | 3.42 | > 100 µM | 3.75 | > 100 µM | 1.77 | 3.47 | 2.65 | > 100 µM | – | –
COC(=O)C1=C2CCC(=O)[C@@]2(C)C(OC(C)=O)C=CC1 (stereo partly specified) | – | > 100 | – | > 100 µM | – | > 100 µM | – | > 100 | – | > 100 µM | – | > 100 µM | – | > 100 µM | – | > 100 | – | – | – | > 100 µM
Oc1ccccc1-c1nn(CNc2cccc(Cl)c2)c(=S)o1 | 13.1 | 86.3 | > 100 | > 100 µM | 37.2 | > 100 µM | – | – | – | – | 18.5 | > 100 µM | – | > 100 µM | 67.3 | > 100 | 77.1 | > 100 µM | – | –
Cc1[nH]c2ccccc2c1C1Cc2ccccc2N1C(=O)/C=C/C=C/c1ccccc1 (stereo unspecified) | – | > 100 | – | > 100 µM | – | > 100 µM | – | > 100 | – | > 100 µM | – | > 100 µM | – | > 100 µM | – | > 100 | – | – | – | > 100 µM
CS(=O)(=O)NNS(=O)(=O)c1cccc([N+](=O)[O-])c1 | – | > 100 | – | > 100 µM | – | > 100 µM | – | > 100 | – | – | – | > 100 µM | – | > 100 µM | – | > 100 | – | – | – | > 100 µM
CC1(C)COC(C23C4C5C2C2C3C4C52I)=N1 (stereo unspecified) | – | > 100 | – | > 100 µM | – | – | – | > 100 | – | > 100 µM | – | > 100 µM | – | > 100 µM | – | > 100 | – | – | – | > 100 µM
COc1ccc(C(=O)OCC2OC(n3cnc4c(=S)nc[nH]c43)C(OC(=O)c3ccc(OC)cc3)C2OC(=O)c2ccc(OC)cc2)cc1 (stereo unspecified) | – | > 100 | – | > 100 µM | – | > 100 µM | – | > 100 | – | > 100 µM | – | > 100 µM | – | > 100 µM | – | > 100 | – | – | – | > 100 µM
[O-]c1c2c(nn1-c1ccccc1)c1ccccc1c[n+]2Cc1ccccc1 | – | > 100 | – | > 100 µM | – | > 100 µM | – | > 100 | – | > 100 µM | – | > 100 µM | – | > 100 µM | – | > 100 | – | – | – | > 100 µM
CC1CC2(C)ON=C(c3ccccc3)N2c2ccccc2S1 (stereo unspecified) | – | – | 37.3 | – | 17.5 | 42.5 µM | 32.8 | – | 76.7 | – | 27.9 | 80 µM | 16 | 44.9 µM | 34.4 | – | 26 | 93.3 µM | – | –
CCCCCCCCCCCCCC(=O)O[C@H]1CC[C@H](NC(=O)[C@H](OC)[C@H](O)[C@@H](O)[C@H](O)/C=C/C(C)C)C(=O)NC1 | – | – | 0.00181 | 20.5 µM and 14.3 µM | – | 1.19 µM and 7.64 µM | – | – | – | 10.8 µM and 21.6 µM | – | 7.29 µM and 12.7 µM | – | 16.9 µM and 14.5 µM | – | 0.928 | 0.00789 | 51.2 µM and 18.2 µM | – | 7.97 µM and 38.7 µM
CC(=O)OC(/C=C1/C=CC(=O)O1)COC(=O)c1ccccc1 (stereo unspecified) | – | > 31.2 | – | > 31.2 µM | – | > 31.2 µM | – | > 31.2 | – | > 31.2 µM | – | > 31.2 µM | – | – | – | > 31.2 | – | – | – | > 31.2 µM
